In patent publication US20110319339A1, “NEUROTENSIN-DERIVED BRANCHED PEPTIDES AND USES THEREOF” (priority 2008, published 2011):

Legend:
HT-29 = experiment: Cytotoxicity of drug-conjugated NT4, MTT growth inhibition; type: cell-based, human; conditions: HT29, best EC50 values, 0.15 to 30 μmol/L
Experimental: (§1) Cells were grown without changing the medium for days. Growth inhibition was assessed by 3-(4,5-dimethylthiazol-2-yl)-2,5-diphenyltetrazolium bromide. EC50 values were calculated by non-linear regression analysis using GraphPaD prism 3.02 software.

[1] = Classification of functionalized branched peptides as fast or slow/non releasing; conditions: ability to release the functional unit from the carrier peptide
PC-3 = experiment: Cytotoxicity of drug-conjugated NT4, MTT growth inhibition; type: cell-based, human
Experimental: as §1

HT29 tumors = experiment: Tumor growth reduction in mice; type: in vivo, CD-1 female nude mice; conditions: given six times, dose of 3 μg/kg, time-frame of 10 days
Experimental: In details, CD-1 female nude mice (Charles River Laboratories, Inc.), 5 to 6 weeks of age (mean weight, 20 g), were injected s.c. in the right flank with 1×10^6 HT29 cells. When tumors reached a diameter of 3 to 4 mm (5 days after tumor inoculation) mice were randomly divided into groups (four mice per group) and repeatedly injected in the tail vein (0, 30, 70, 140, 190, 240 hours post first injection) with 500 μL of the following solutions in 0.9% NaCl: (a) 1 mg/mL NT(1-13)4-5FdU (3.05 μmol/kg); (b) 30 μg/mL 5FdU (3.05 μmol/kg); and (c) 0.9% NaCl.
Tumor volumes were measured daily with a caliper using the following formula: volume=length*width2*π/6. 21 days after tumor inoculation, ie 6 days after the last treatment, mice were sacrificed, tumors, removed and weighted. […] Statistical analysis was done using Student's t test (p<0.05).

[2] = system: HT-29, PANC-1 and PC-3 tumor cell lines; experiment: Cytotoxicity of drug-conjugated NT4, statements on the three cell lines together; type: cell-based, human
Experimental: Cells were grown without changing the medium for days.
5-FdU, Monastrol and CBTST were fast released from the adducts. […] The additional washing was performed in order to avoid free drug to diffuse inside the cells during the following six days.

[3] = system: colon tumors and healthy tissues from the same patient; experiment: Binding of fluorophore-conjugated NT4 to human tumor surgical samples versus healthy tissue, confocal fluorescence; conditions: any tissue sample (colon and pancreas)
Experimental: Each step was followed by washing with TBS. […] Each step was followed by washing with TBS. […] Analogue monomeric peptides were assayed for comparison. […] All images were processed using the ImageJ software (NIH).

[4] = compared to NT

Compound: NT(8-13)-betaAla-K(PEG-5-fluorodeoxyuridine) [NT4(8-13)-5-FdU]
- EC50 (HT-29): 330 nM

Compound: NT(8-13)4-betaAla-K(PEG-Chlorambucil) [NT4(8-13)-CLB]
- EC50 (HT-29): 1900 nM
- releasing class of the adduct [1]: slow releasing

Compound: NT(8-13)-betaAla-K(PEG-Tirapazamine) [NT4(8-13)-TPZ]
- EC50 (PC-3; PC3, best EC50 values, 0.15 to 30 μmol/L, MTT): 140 nM
- releasing class of the adduct [1]: slow releasing

Compound: NT(8-13)4-beta-Ala-Biotin
- binding activity to NT receptor (NT receptor; compared to NT(8-13)4): loose binding activity

Compound: O=c1[nH]c(=O)n([C@H]2C[C@H](O)[C@@H](CO)O2)cc1F [5-FdU, 5-fluoro-2′-deoxyuridine]
- inhibition of tumor growth (HT29 tumors): 10%
- sensitivity of PC-3 cells to the drug (PC-3): not affected

Compound: NT(8-13)-betaAla-K(PEG-Monastrol) [NT4(8-13)-Mon]
- activity compared to the parent free drug [2]: no improvement

Compound: NT(1-13)4
- binding to tissue sample compared to NT(8-13)4 [3]: identical

Compound: CN(Cc1cnc2nc(N)nc(N)c2n1)c1ccc(C(=O)N[C@@H](CCC(=O)O)C(=O)O)cc1 [MTX, methotrexate]
- sensitivity of PC-3 cells to the drug (PC-3): not affected

Compound: QHWSYGLRPG [LHRH]
- in vitro binding profiles [4]: lower

Compound: NT4-peg-Biotin
- IC50 values (NT receptor; compared to that of NT4): comparable

Compound: NT(8-13)-betaAla-K(PEG-6-mercaptopurine) [NT4(8-13)-6-MP]
- activity compared to the parent free drug [2]: no improvement

Compound: O=C(O)CCCc1ccc(N(CCCl)CCCl)cc1 [CLB, chlorarnbucil]
- sensitivity of PC-3 cells to the drug (PC-3): not affected
